Results: patent US10407415B2, “Dihydrate of benzothiophene compound or of a salt thereof, and process for producing the same” (OTSUKA PHARMACEUTICAL CO., LTD., priority 2012, dated 2019)

Assays:
[1] = Measurement of drug residue in muscle; type: in vivo; details: rat, injectable preparation 100 mg/mL (finely ground, mean particle diameter 3.5 μm) intramuscularly injected at 25 mg/kg, dissected 56 days after the injection
Method: The dihydrate of the present invention (150 mg) was dispersed to the suspension medium (1 mL) described below, and pulverized using 5 mm zirconia beads (1.2 g, pulverization time: 30 min) while being stirred with a stirrer. The suspension medium used for pulverization was a solution containing 0.832% (w/v) sodium carboxymethylcellulose (CMC-Na), 4.16% (w/v) mannitol, and 0.074% (w/v) sodium dihydrogenphosphatemonohydrate. The pH thereof was adjusted to 7.0 by adding an appropriate amount of sodium hydroxide. The concentration of each preparation was adjusted to 100 mg/mL using this medium.
An anhydride was subjected to pulverization in the same manner to obtain an anhydride (finely ground product) having a mean particle diameter of 3.5 μm. The mean particle diameter was measured using a laser diffraction particle size analyzer (SALD-3000) or SALD-3100, manufactured by Shimadzu Corporation).
Injectable preparations each containing the dihydrate of the present invention (finely ground product, mean particle diameter: 3.5 μm) or an anhydride (finely ground product, mean particle diameter: 3.5 μm) were obtained by the procedure described above.
Each injectable preparation thus obtained was intramuscularly injected into a rat in a dosage of 25 mg/kg. Each injectable preparation was injected into three rats.

[2] = Pharmacokinetics test using a dog (intramuscular injectable preparation); type: in vivo; details: 10 mg/kg calculated as the anhydride
Method: Injectable preparations containing the dihydrate of the present invention as an active ingredient were formulated as shown in Table 3. Each of the injectable preparations was injected into the thigh muscle of a dog in such a dosage that 10 mg/kg of active ingredient calculated as the anhydride of the present invention was contained. FIG. 14 is a graph showing the mean blood concentration-time profile after the injection. As is clear from FIG. 14, the sustained release property can be stably maintained for more than 30 days from the injection.

Compound | The number having residue in muscle (Number having residue/Total) [1] | The number having residue in muscle (Number having residue/Total) ([1]; dihydrate) | time for which the sustained release property is stably maintained (mean blood concentration-time profile, FIG. 14) ([2]; injected into the thigh muscle, Table 3 formulation) | Stimulation at the injection site ([2]; thigh muscle injection, observed 7 days after the injection)
O=c1ccc2ccc(OCCCCN3CCN(c4cccc5sccc45)CC3)cc2[nH]1 [Anhydride, 7-[4-(4-benzo[b]thiophen-4-yl-piperazin-1-yl)butoxy]-1H-quinolin-2-one anhydride, reference compound] | 0/3 |  |  | 
O=c1ccc2ccc(OCCCCN3CCN(c4cccc5sccc45)CC3)cc2[nH]1 [Dihydrate, 7-[4-(4-benzo[b]thiophen-4-yl-piperazin-1-yl)butoxy]-1H-quinolin-2-one dihydrate] |  | 3/3 | more than 30 days | low
